Reference: a melting point compilation (Tetko et al.)

| melting point [°C] | Structure (SMILES) |
| --- | --- |
| 96 to 98 | COC(=O)c1cc(OC)c(OC(F)F)cc1[N+](=O)[O-] |
| 80 to 82 | COc1ccc(S(=O)(=O)Cl)cc1Cl |
| 69 to 71 | CS(=O)(=O)c1cccc(O)c1 |
| 163 to 165 | COc1ccc(C(=O)NC(C(=O)O)C(C)C)cc1 (configuration not stated) |
| 97 to 99 | COC(=O)c1cc(S(N)(=O)=O)ccc1F |
| 289 to 291 | Cc1c[nH]c(=O)n1-c1cccc(C(=O)O)c1 |
| 70 to 72 | COc1ccc(N)cc1OCCN(C)C |
| 90 to 92 | Cc1ccc(OCCCC(=O)O)cc1C |
| 104 to 106 | O=C(Nc1cccc(S(=O)(=O)C2CCCC2)c1)OCC(F)(F)F |
| 157 to 159 | NS(=O)(=O)c1ccc(SCC(=O)O)cc1 |
| 62 to 64 | COc1cc(C=O)cc(OC)c1OCc1ccccc1 |
| 149 to 151 | NS(=O)(=O)N1CCc2ccccc21 |
| 197 to 199 | CC1(c2ccc3c(c2)OCO3)NC(=O)NC1=O (configuration not stated) |
| 129 to 131 | CS(=O)(=O)Cc1c(N)cccc1F |
| 92 to 94 | CCOC(=O)c1cccnc1S(N)(=O)=O |
| 124 to 126 | CN(C)C(=O)Cn1ccc2cc(N)ccc21 |
| 69 to 71 | CCN(CC)S(=O)(=O)c1cccc(C(=O)NCC(=O)O)c1 |
| 109 to 111 | O=c1oc2ccc([N+](=O)[O-])cc2n1CCCBr |
| 103 to 105 | NS(=O)(=O)C1CN(C(=O)OCc2ccccc2)C1 |
| 133 to 135 | O=C(O)C1CCCCN1S(=O)(=O)c1ccc(Br)cc1 (configuration not stated) |
| 135 to 137 | NNC(=O)c1ccc(S(=O)(=O)N2CCN(Cc3ccccc3)CC2)cc1 |

| melting point [°C] | Structure (SMILES) |
| --- | --- |
| 144 to 146 | O=C(O)C(Oc1cc(Cl)ccc1Cl)c1ccccc1 (configuration not stated) |
| 218 to 220 | COc1ccc(-c2nnc(S)n2C(C)C)cc1 |
| 141 to 143 | Cc1noc(-c2ccc(N)c(Cl)c2)n1 |
| 41 to 43 | COc1ccc(Cl)c(S(=O)(=O)Cl)c1 |
| 137 to 139 | Nc1cccc(-c2cc[nH]n2)c1 |
| 185 to 187 | C#Cc1cccc(NC(=O)NC(=O)CCl)c1 |
| 145 to 147 | COc1cccc(Cn2c(N)nc3ccccc32)c1 |
| 136 to 138 | COc1ccc(C(=O)CO)cc1Cl |
| 174 to 176 | N#Cc1ccccc1Oc1ccc(C(=O)O)cc1Cl |
| 286 to 288 | O=c1cc[nH]c2ccc(Br)cc12 |
| 116 to 118 | COc1ccc(Br)c(-c2nnc(CCC(=O)O)o2)c1 |
| 255 to 257 | Cc1nc(-c2ccc(Cl)s2)sc1C(=O)O |
| 102 to 104 | CCN(c1ccccc1)S(=O)(=O)c1cc(N)ccc1Cl |
| 109 to 111 | CN(C1CCCCC1)S(=O)(=O)c1cccc(N)c1 |
| 179 to 181 | O=C(O)c1ccc(-n2cnnn2)cc1Cl |
| 257 to 259 | CCOC(=O)c1c[nH]c2cc(OC)cc(OC)c2c1=O |
| 83 to 85 | COC(=O)c1ccc(Oc2ccc(Cl)cc2N)cc1 |
| 198 to 200 | CCNS(=O)(=O)c1cc(/C=C/C(=O)O)ccc1OC |
| 76 to 78 | O=C(CCl)Nc1ccc(F)cc1Cl |
| 85 to 87 | COc1ccc([N+](=O)[O-])cc1S(=O)(=O)Cl |
| 130 to 132 | CN(C)S(=O)(=O)c1ccc2c(c1)NCCC2 |

| melting point [°C] | Structure (SMILES) |
| --- | --- |
| 72 to 74 | Clc1cn2ccccc2n1 |
| 109 to 111 | O=C(O)c1cc(Cl)ccc1OC(F)F |
| 274 to 276 | NS(=O)(=O)c1ccc(C(=O)O)cc1F |
| 85 to 87 | N#Cc1ccccc1CS(=O)(=O)Cl |
| 193 to 195 | COC(=O)c1ccc2[nH]ncc2c1 |
| 135 to 137 | CC(=O)c1ccc(-c2ccc(Cl)c(Cl)c2)cc1 |
| 139 to 141 | Cc1cccc(Cl)c1NC(=O)CBr |
| 112 to 114 | O=C(CCl)Nc1ccc2c(c1)CCC2 |
| 212 to 214 | O=C1CCc2cc(C(=O)CCl)ccc2N1 |
| 140 to 142 | CC(NS(=O)(=O)Cc1ccc(CN)cc1)C(N)=O (configuration not stated) |
| 194 to 196 | CC(Cl)C(=O)Nc1ccc(N2CCCC2=O)cc1 (configuration not stated) |
| 259 to 261 | CNS(=O)(=O)c1ccc(/C=C/C(=O)O)cc1 |
| 256 to 258 | Cc1ccccc1NS(=O)(=O)c1ccc(C(=O)O)cc1 |
| 124 to 126 | Cc1cc(Br)c(S(=O)(=O)Cl)c(Br)c1 |
| 116 to 118 | CCCc1ccc(N)c(C(=O)O)c1 |
| 58 to 60 | COC(=O)c1cc([N+](=O)[O-])cnc1C |
| 163 to 165 | O=C(NCCO)c1ccc(O)cc1O |
| 268 to 270 | Cc1ccc2c(C(=O)CC#N)c[nH]c2c1 |
| 116 to 118 | Cc1ccc(NS(C)(=O)=O)c(N)c1 |

Further lines, the compound ahead of its results:

| Structure (SMILES) | melting point [°C] |
| --- | --- |
| CNCc1c(C)nn(-c2ccccc2C)c1C | 41 to 43 |
| COc1ccnc(N2CCC(C(=O)O)CC2)n1 | 131 to 133 |
| O=C(O)CCCNC(=O)c1ccccc1 | 87 to 89 |
| CCOC(=O)N1CCNC(=O)CC1 | 103 to 105 |
| O=C(O)c1cc([N+](=O)[O-])c(Br)cc1F | 152 to 154 |
| NC(=O)C1CC(C(=O)O)=NN1c1ccc(F)cc1 (configuration not stated) | 219 to 221 |
| Cc1nc2c(c(C)c1CC(=O)O)c(=O)[nH]n2C | 239 to 241 |
| O=C(O)c1cnc(-c2ccc(C(F)(F)F)cc2)s1 | 160 to 162 |
| Cc1ccc(C)c(C(C)Nc2ccc(C(=O)O)cc2C)c1 (configuration not stated) | 211 to 213 |
| CCc1nnc(CO)n1C | 41 to 43 |
| Cc1sc2nc(CCl)[nH]c(=O)c2c1-c1ccccc1 | 259 to 261 |
| COC(=O)Cc1nn[nH]n1 | 154 to 156 |
| CCOC(=O)c1cnc(N2CCNCC2)s1 | 73 to 75 |
| NC1CCN(c2ccccc2F)C1=O (configuration not stated) | 67 to 69 |
| CCOC(=O)C(C#N)C1C(=O)N(C)c2ccccc21 (configuration not stated) | 119 to 121 |
| NCCNc1ccc(-c2ccccc2)nn1 | 113 to 115 |
| O=C1CC2(CCSC2)C(=O)O1 (configuration not stated) | 83 to 85 |
| Nc1ccccc1N1CCOC1=O | 88 to 90 |
| CCOC(=O)C(NC(=O)c1ccccc1)C(=O)OCC | 62 to 64 |
| CCOC(=O)c1c(NC(N)=S)sc(C)c1C | 207 to 209 |
| COC(=O)c1sc2ncc(C=O)cc2c1C | 199 to 201 |

| Structure (SMILES) | melting point [°C] |
| --- | --- |
| Cn1ccnc1C(O)(CCN)C(F)(F)F (configuration not stated) | 115 to 117 |
| Nc1ccccc1N1CCCC1=O | 98 to 102 |
| O=C(O)C1(c2ccc(OCc3ccccc3)cc2)CCOCC1 | 151 to 153 |
| CC(C)Oc1ccc(C(N)=S)cc1 | 152 to 154 |
| OC1(Cc2ccccc2)CCCC1 | 56 to 58 |
| Cc1ccc(C(=O)O)cc1NCc1ccc(Br)o1 | 125 to 127 |
| N#Cc1ccc(C(=O)N2CCOCC2)cc1 | 144 to 146 |
| O=C(O)c1ccccc1SCCO | 125 to 127 |
| NC(=S)Nc1cccc2ncccc12 | 223 to 225 |
| N#Cc1ccc(Oc2ccccc2C(F)(F)F)nc1 | 80 to 82 |
| CCc1nnc(S)n1N | 143 to 145 |
| CN1CCN(C(=O)C2CCN(C(=O)OC(C)(C)C)CC2)CC1 | 95 to 97 |
| O=C(O)CCc1nnc(-c2ccsc2)o1 | 159 to 161 |
| c1ccc(-c2nnco2)cc1 | 35 to 37 |
| CC(C)S(=O)(=O)NCC1CCCNC1 (configuration not stated) | 156 to 158 |
| Nc1ncn(Cc2ccc(Br)cc2)n1 | 169 to 171 |
| CNCCCc1cc(-c2ccc(F)cc2)n[nH]1 | 104 to 106 |
| Sc1nnc(C2CC2)n1C1CC1 | 138 to 140 |
| Cc1oc(N)c(C#N)c1C | 163 to 169 |
| Cc1c(CC(=O)O)nnn1-c1ccccc1 | 169 to 171 |
| CCN(CC)C(N)=S | 98 to 102 |

| Structure (SMILES) | melting point [°C] |
| --- | --- |
| CC(CC(=O)O)NCCO (configuration not stated) | 180 to 182 |
| Nc1ccc(NC(=O)C2CCCO2)cc1C(F)(F)F (configuration not stated) | 64 to 66 |
| Cc1ccc(-c2ccc(=O)[nH]n2)s1 | 231 to 233 |
| Nc1ccc(C(=O)Nc2ccccc2)cc1 | 134 to 136 |
| Nc1nc2ccccc2o1 | 124 to 126 |
| N#Cc1ccc(NC2CC2)cc1 | 79 to 81 |
| Cc1ccccc1COc1cccc(N)c1 | 61 to 63 |
| CC(C)(NC(=O)NCc1cccc(Br)c1)C(=O)O | 159 to 161 |
| Sc1nnc(-c2ccccc2)n1-c1ccccc1 | 292 to 294 |
| O=C(CCl)Nc1cccnc1 | 179 to 181 |
| O=c1[nH]c(-c2cccnc2)cs1 | 225 to 227 |
| O=C(O)c1ncn(-c2ccccc2)n1 | 179 to 181 |
| CC(=O)c1c(C)[nH]c(C(=O)C(C)Cl)c1C (configuration not stated) | 152 to 154 |
| CC(Cl)C(=O)N1c2ccccc2CC1C (configuration not stated) | 135 to 137 |
| Cc1ccc(Cc2cnc(N)s2)cc1F | 139 to 141 |
| CC(=NO)c1ccc(OCc2ccccc2C)cc1 | 153 to 155 |
| CC1CC(=O)NC(=O)C1 | 144 to 146 |
| O=C(Nc1ccccc1CO)c1ccco1 | 95 to 97 |
| O=C1CCc2c(F)ccc(Br)c21 | 129 to 131 |
| Sc1nc(-c2ccccc2)c(-c2ccccc2)n1Cc1ccccc1 | 280 to 282 |
| COC(=O)c1c(C2CC2)csc1N | 72 to 74 |

| Structure (SMILES) | melting point [°C] |
| --- | --- |
| Cc1nn(-c2ccccc2)cc1N | 81 to 83 |
| Clc1ccc(N2CCOCC2)nn1 | 131 to 133 |
| O=C(CC(=O)C(F)F)c1ccco1 | 39 to 41 |
| CCc1c(C(=O)CCl)[nH]c(C)c1C(C)=O | 143 to 145 |
| CC(NC(=O)OCC(F)(F)F)c1nncn1C (configuration not stated) | 103 to 105 |
| O=Cc1csc(-c2cccs2)n1 | 80 to 82 |
| CC1CCN(C(=O)c2ccc(N)cc2)CC1 | 118 to 120 |
| CC(=O)c1cnn(-c2ccc(C#N)cc2)c1C | 152 to 154 |
| Cc1[nH]c(=O)c(C#N)c(C)c1CCC(=O)O | 253 to 257 |
| O=C(O)c1ccc(=O)n(Cc2ccccc2)n1 | 192 to 195 |
| CC(=O)Nc1cccc(NC(=O)C(Br)C(C)C)c1 (configuration not stated) | 179 to 181 |
| O=C(O)CN(Cc1ccccc1)Cc1ccccc1 | 195 to 197 |
| O=C(C=NO)Nc1cccc(C(F)(F)F)c1 | 115 to 117 |
| Nc1ccc(-n2cncn2)c(F)c1 | 126 to 128 |
| Cc1cccc(C2(C(=O)O)CCCCC2)c1 | 141 to 143 |
| Cc1nc(CSCC(=O)O)cs1 | 155 to 157 |
| CC(C)c1cnc(-c2ccc([N+](=O)[O-])cc2)o1 | 103 to 105 |
| O=C(Nc1cc[nH]n1)c1ccccc1 | 161 to 163 |
